# Measurements taken from patent US11911411B2, “Sulfated glycosaminoglycan biomaterials as proteoglycan mimics” (Glycologix, LLC, priority 2020, dated 2024).
# Tested on: bladder permeability in LPS-treated URO-MCP-1 mice
# Experiment: CE-MRI (Gd-DTPA) assessment of bladder permeability, LPS-treated URO-MCP-1 transgenic mouse model of IC/BPS
# Format: in vivo
# Details: 20 mg/ml, 100 μl
# Experimental: The URO-MCP-1 transgenic model was described previously. Cystitis with accompanying permeability were induced by intravesical administration of LPS at a sub-noxious dose of 1 jig of LPS in 100 μl of saline (Day 0, 9 a.m.). One control group was administered saline (100 μl) only (saline URO-MCP-1). Another control group consisting of wild-type (WT) mice was also administered saline only (saline-WT). Bladders were flushed 3 times with saline to remove any excess LPS 1 hour post-LPS injection. The next day (Day 1, 9 am) animals were treated with CS or SuperGAG (20 mg/ml in saline; 100 μl) or saline and the initial permeability was assessed 3 hours later (Day 1, 12:00 p.m.).
# For MRI assessment of permeability, mice were anesthetized and treated as described above, but instead of euthanizing the mice, on Day 1, Day 3, and Day 5 the mice were anesthetized, instilled with the contrast agent Gd-DTPA and placed into the MRI instrument. MRI experiments were conducted on a 7 Tesla 30 cm-bore Bruker Biospec MRI system (Bruker Biospin Corporation, Woodlands, TX, U.S.A.). MRI scans were obtained at 1-, 3-, and 5-days following LPS instillation. For the bladder images, Gd-DTPA (0.034 mM Gd-DTPA diluted to 100 μl in saline), was administered via an intravesical catheter, for visualization of loss of permeability of the bladder urothelium. Bladder CE-MRI signal intensity changes were determined 7 minutes. post-contrast. For all MR images, a T1-weighted RARE (rapid acquisition with relaxation enhancement) MRI pulse sequence was used with the following parameters: repetition time (TR) of 1200 ms, echo time (TE) of 9 ms, a RARE factor of 4, 4 averages, an image slice thickness of 1 mm, a matrix of 256×256, a field-of-view (FOV) of 3.5×3.5 cm2, and with both motion and fat suppression. Animals were euthanized and the bladders placed in formalin for histopathology.
substance,measurement,setting,value
chondroitin sulfate [CS],"percent change in MRI signal intensity versus LPS-treated URO-MCP-1 mice, day 1","day 1, *p< (figure not given)",significant decrease
same,"percent change in MRI signal intensity versus LPS-treated URO-MCP-1 mice, day 3","day 3, ***p<0.0001 for both",significant decrease
same,"percent change in MRI signal intensity versus LPS-treated URO-MCP-1 mice, day 5","day 5, **p<0.01 for SuperGAG",not significantly different to control
